System: VRE
Conditions: preliminary testing

Substance: 2′-N-acyldecanoyl-glucosyl vancomycin neoglycoside [compound 5]
- activity against VRE: significant activity

Reference: patent US8710182B2, “Rapid glycopeptide optimization via neoglycosylation” (Wisconsin Alumni Research Foundation, priority 2006, dated 2014)
